# Data reported in patent US20120164154A1, “METHOD FOR INCREASING INSULIN SENSITIVITY AND FOR TREATING AND PREVENTING TYPE 2 DIABETES” (priority 2002, published 2012).
# Tests used:
# [1] = Insulin tolerance test; format: in vivo; settings: SCD1-/- mice compared with wild-type mice
# From the text: Animals and Diets. SCD1−/− mice in SV129 background were generated and genotyped as described in Miyazaki, M. et al. (2001) J. Nutr. 131, 2260-2268. The wild-type (SCD1+/+), heterozygous (SCD1+/−) and homozygous (SCD1−/−) mice are housed and bred in a pathogen-free barrier facility of the Department of Biochemistry (University of Wisconsin, Madison) operating at room temperature in a 12-h light/12-h dark cycle. The breeding of these animals was in accordance with the protocols approved by the animal care research committee of the University of Wisconsin. At 3 weeks of age, the mice were fed ad libitum a standard laboratory chow diet or a high-fat diet for 23 weeks. The high-fat diet contains 195 g/kg casein, 3 g/kg DL-methionine, 377 g/kg sucrose, 150 g/kg corn starch, 153 g/kg anhydrous milkfat, 10 g/kg corn oil, 1.5 g/kg cholesterol, 60.067 g/kg cellulose, 35 g/kg mineral mix AIN-76 (170915), 4 g/kg calcium carbonate, 10 g/kg vitamin mix Teklad (40060), 1.2 g/kg choline bitartrate, and 0.033 g/kg ethoxyquin (antioxidant). The weight of each mouse within each group was measured weekly; the data are presented as means±SD (n=8, P<0.001). The glucose tolerance and insulin tolerance were determined as described in Stoehr, J. P. et al. (2000) Diabetes 49, 1946-1954.
# [2] = system: isolated soleus muscle; assay: Basal and insulin-stimulated 2-deoxyglucose uptake in isolated soleus muscle; parameters: species or system mice; settings: 0.1 m-unit of insulin/ml, 2 h preincubation, 2-deoxyglucose uptake 15 min
# Experimental: (A) Representative immunoblot of GLUT4 protein expression along with combined densitometric analysis. Muscle from 3 SCD1+/+ and 3 SCD1−/− mice were pooled. Plasma membranes were prepared as described in Example 1. Equal amount of protein was separated by SDS-PAGE and immunoblotted with GLUT4 antibody. Experiment was repeated three times. Data are shown as means±SD. *P<0.05 vs controls. Nitrocellulose membrane was stripped and reprobed with GAPDH antibody to ensure equal loading of the protein. (B) Glucose uptake measured in vivo in soleus and gastrocnemius muscles. […] The 2-deoxyglucose uptake was calculated as the difference between the total muscle radioactivity and the radioactivity of the muscle extracellular space measured using [1-^3H] mannitol. […]
# Determination of plasma membrane GLUT4 levels, glucose uptake and glucose oxidation. Muscle plasma membranes were prepared from muscle of SCD1−/− and SCD1+/+ mice and GLUT4 levels were determined as described in Agote, M. et al. (2001) Am. […] The scintillation cocktail was added and radioactivity was counted in a liquid scintillation counter. The 2-deoxyglucose (2-DG) uptake was calculated as the difference between the total muscle radioactivity and the radioactivity of the muscle extracellular space. […] Glucose oxidation was determined in thin slices (20-30 mg) of gastrocnemius muscle as described in Baque, S. et al. (2001) Am. […]
substance,measurement,setting,value
insulin,glucose lowering effect of insulin,[1],greater in the SCD1−/− mice than wild-type mice
same,insulin-mediated glucose uptake (fold),[2]; isolated soleus muscle from SCD1+/+ mice,1.6 fold
same,insulin-mediated glucose uptake (fold),[2]; isolated soleus muscle from SCD1-/- mice,2.1 fold
